Our source for the IC50 values is patent US20220273659A1, “HETEROCYCLIC COMPOUNDS AS KINASE INHIBITORS” (NUVATION BIO INC., priority 2019, published 2022).

One experiment addresses T1, CDK4 (Homo sapiens, UniProt P11802).
T1 construct: purchased Invitrogen PR8064A
In words: In vitro kinase inhibition IC50, luminescence (ADP Glo), retinoblastoma substrate. Type of experiment: biochemical. As to conditions: read-out: CDK4/D1 IC50. The method in brief:
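Inhibition of CDK4 was quantified by ADP Glo luminescence with retinoblastoma as substrate. Reactions held 5 nM kinase, 1 μM retinoblastoma and 25 μM ATP and ran 2H at room temperature. A Synergy Neo reader took signals 15 min and 45 min after detection reagent, and percent inhibition was fitted to a four-parameter logistic model in XLfit to obtain IC50.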
On the technique in general: In ADP-Glo the light output rises with the ADP produced.

Another experiment concerns the target T2, CDK6 (Homo sapiens, UniProt Q00534).
T2 construct: purchased Invitrogen PR8422B
The description is as above. Type of experiment: biochemical. As to conditions: read-out: CDK6/D1 IC50. The method in brief: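 IC50 derived by four-parameter logistic fit of percent inhibition, read as ADP-Glo luminescence. Reactions: 5 nM CDK6, 1 μM retinoblastoma, 25 μM ATP, test compound 0.1–200 nM final, 2 h at room temperature.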

Another experiment concerns the target T3, FMS kinase (Homo sapiens, UniProt P07333).
T3 construct: purchased Invitrogen (Life Technologies)
Briefly: LanthaScreen Eu Kinase Binding Assay (ATP, fluorescent-PolyGT substrate). Type of experiment: biochemical. Here is the method: IC50 values of compounds against FMS kinase were determined by LanthaScreen™ Eu Kinase Binding Assay at Invitrogen (Life Technologies Grand Island, N.Y.) where total reaction volume was 10 μL in low-volume 384-well plates (#4511, Corning). Serially diluted compounds (3-fold) were incubated with kinase (1.25 nM) for 10 min, following which a mixture of ATP (10 μM) (#A1852, Sigma, St-Louis, Mo.) and fluorescent-PolyGT substrate (200 nM) (#PV3610, Invitrogen, Life Technologies Grand Island, N.Y.) was added and incubated in dark at room temperature for 1H. After 1H, 10 μL stop solution containing Terbium labeled antibody (4 nM) (#PV3529, Invitrogen, Life Technologies Grand Island, N.Y.) and EDTA (#E5134, Sigma, St-Louis, Mo.) (20 mM) in TR-FRET dilution buffer (#PV3574, Invitrogen, Life Technologies Grand Island, N.Y.) was added. Readings were taken in a Synergy Neo Plate reader (BioTek, Winooski) at single excitation of 340 nm and Dual emission at 495 nm and 520 nm respectively.
The following equations were used for LanthaScreen Eu Kinase Binding Assay Data Analysis. Percent inhibition (100-% activity) was fitted to the “four-parameter logistic model” in XLfit for determination of IC50 values.
In general terms: In TR-FRET formats the signal depends on donor and acceptor labels being close together.

Another experiment concerns the target T4, PI3Kδ kinase (Homo sapiens, UniProt O00329).
T4 construct: purchased Reaction Biology Corporation (assay service)
Briefly: PI3Kδ kinase assay (ADP-Glo, Reaction Biology). Type of experiment: biochemical. The procedure:
IC50 values of compounds against the PI3Kδ kinase were determined by an assay performed by Reaction Biology Corporation (Malvern, Pa.). Briefly, this assay was conducted in buffer (Tris-HCl 40 mM (pH7.5), Orthovanadate 3 mM, MgCl2 20 mM, DTT 2 mM, CHAPS 0.05%, DMSO 1%). PI3Kδ kinase was added to the reaction solution and mixed gently. The test compounds in 100% DMSO (at specific solutions) were mixed with the kinase reaction mixture to achieve the final compounds at pre-defined concentrations (e.g., range −0.5 nM to 100 μM) by Acoustic technology (Echo550; nanoliter range). After incubating for 10 min at room temp, ATP was added into the reaction mixture to initiate the reaction followed by a 30-min incubation at 30° C. After quenching the reaction with ADP-Glo reagent, the plates were incubated for 40 min. The Detection Mixture was added, and the plate was incubated for an additional 30 min. At the end of incubation, luminescence was measured. For data analysis, the luminescence was converted into μM ADP production based on ADP standard curves. The nonlinear regression to obtain the standard curve and IC50 values was performed using GraphPad Prism (GraphPad Software, Inc., San Diego, Calif.).

Experiment [1] has as its system MCF-7 breast adenocarcinoma cells. Briefly: Cancer cell proliferation assay, single agent (cell viability). In kind it is cell-based. The following applies: Homo sapiens, MCF7, Table 4; Rb positive; treatment 144 Hr with medium change at 72 Hr; Cell Titer-Glo or resazurin. In a few lines:
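Viability read by resazurin or CellTiter-Glo after 24 h treatment (BT-549) or 144 h with a 72 h medium change (MCF-7, DU4475). Compounds tested at 7–9 concentrations, e.g. 1.1 nM–10 μM, added the day after seeding; IC50 by nonlinear sigmoidal regression.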
In general terms: In ATP-based viability assays light output follows the ATP content of the culture.

Molecules are shown by their SMILES.

T4 sequence (O00329 whole entry): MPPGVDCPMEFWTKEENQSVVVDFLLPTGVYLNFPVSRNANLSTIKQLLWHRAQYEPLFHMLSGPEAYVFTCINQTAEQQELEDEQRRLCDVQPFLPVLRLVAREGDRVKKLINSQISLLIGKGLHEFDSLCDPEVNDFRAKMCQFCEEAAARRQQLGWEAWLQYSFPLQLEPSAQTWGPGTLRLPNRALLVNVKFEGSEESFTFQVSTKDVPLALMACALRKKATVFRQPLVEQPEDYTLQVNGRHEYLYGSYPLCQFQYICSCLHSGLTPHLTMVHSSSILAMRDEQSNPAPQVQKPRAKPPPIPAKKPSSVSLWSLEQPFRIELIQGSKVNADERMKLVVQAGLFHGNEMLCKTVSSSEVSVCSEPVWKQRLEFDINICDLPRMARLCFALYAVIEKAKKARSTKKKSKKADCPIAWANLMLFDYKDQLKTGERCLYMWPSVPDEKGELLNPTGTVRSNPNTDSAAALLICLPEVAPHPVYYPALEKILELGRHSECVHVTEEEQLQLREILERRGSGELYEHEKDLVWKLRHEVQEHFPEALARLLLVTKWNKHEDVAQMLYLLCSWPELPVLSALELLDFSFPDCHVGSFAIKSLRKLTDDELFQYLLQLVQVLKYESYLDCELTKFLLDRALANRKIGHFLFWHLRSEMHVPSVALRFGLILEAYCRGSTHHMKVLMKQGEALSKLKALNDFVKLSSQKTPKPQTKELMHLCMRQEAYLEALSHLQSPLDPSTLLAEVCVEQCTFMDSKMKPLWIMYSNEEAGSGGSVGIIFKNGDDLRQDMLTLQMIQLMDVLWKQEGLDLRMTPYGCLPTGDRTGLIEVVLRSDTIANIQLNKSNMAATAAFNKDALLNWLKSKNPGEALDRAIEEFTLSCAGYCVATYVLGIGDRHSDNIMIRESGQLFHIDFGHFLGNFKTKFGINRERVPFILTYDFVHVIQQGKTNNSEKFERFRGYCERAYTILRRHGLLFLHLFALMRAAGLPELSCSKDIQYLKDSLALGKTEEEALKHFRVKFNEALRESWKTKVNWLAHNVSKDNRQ
T4 sequence (P27986 whole entry partner): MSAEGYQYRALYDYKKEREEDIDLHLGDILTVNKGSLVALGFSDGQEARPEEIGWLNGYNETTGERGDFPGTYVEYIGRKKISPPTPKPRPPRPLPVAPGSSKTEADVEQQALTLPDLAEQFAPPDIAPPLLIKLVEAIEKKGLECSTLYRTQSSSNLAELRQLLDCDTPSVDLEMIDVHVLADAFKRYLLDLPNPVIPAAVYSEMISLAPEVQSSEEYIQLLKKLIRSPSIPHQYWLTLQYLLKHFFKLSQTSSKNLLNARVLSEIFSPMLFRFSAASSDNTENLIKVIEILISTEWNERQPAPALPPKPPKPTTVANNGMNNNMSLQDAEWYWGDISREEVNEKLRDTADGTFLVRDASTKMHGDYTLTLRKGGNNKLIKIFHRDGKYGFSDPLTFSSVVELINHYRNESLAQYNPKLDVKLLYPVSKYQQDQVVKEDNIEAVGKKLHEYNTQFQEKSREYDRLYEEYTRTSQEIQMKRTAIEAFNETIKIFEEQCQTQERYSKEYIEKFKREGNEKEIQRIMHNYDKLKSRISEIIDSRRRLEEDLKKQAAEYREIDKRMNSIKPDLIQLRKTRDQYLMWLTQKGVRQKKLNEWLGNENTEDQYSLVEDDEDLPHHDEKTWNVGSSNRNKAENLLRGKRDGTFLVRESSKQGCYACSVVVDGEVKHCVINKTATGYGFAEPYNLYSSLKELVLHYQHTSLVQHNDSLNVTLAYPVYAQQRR
T3 sequence (P07333 20-972): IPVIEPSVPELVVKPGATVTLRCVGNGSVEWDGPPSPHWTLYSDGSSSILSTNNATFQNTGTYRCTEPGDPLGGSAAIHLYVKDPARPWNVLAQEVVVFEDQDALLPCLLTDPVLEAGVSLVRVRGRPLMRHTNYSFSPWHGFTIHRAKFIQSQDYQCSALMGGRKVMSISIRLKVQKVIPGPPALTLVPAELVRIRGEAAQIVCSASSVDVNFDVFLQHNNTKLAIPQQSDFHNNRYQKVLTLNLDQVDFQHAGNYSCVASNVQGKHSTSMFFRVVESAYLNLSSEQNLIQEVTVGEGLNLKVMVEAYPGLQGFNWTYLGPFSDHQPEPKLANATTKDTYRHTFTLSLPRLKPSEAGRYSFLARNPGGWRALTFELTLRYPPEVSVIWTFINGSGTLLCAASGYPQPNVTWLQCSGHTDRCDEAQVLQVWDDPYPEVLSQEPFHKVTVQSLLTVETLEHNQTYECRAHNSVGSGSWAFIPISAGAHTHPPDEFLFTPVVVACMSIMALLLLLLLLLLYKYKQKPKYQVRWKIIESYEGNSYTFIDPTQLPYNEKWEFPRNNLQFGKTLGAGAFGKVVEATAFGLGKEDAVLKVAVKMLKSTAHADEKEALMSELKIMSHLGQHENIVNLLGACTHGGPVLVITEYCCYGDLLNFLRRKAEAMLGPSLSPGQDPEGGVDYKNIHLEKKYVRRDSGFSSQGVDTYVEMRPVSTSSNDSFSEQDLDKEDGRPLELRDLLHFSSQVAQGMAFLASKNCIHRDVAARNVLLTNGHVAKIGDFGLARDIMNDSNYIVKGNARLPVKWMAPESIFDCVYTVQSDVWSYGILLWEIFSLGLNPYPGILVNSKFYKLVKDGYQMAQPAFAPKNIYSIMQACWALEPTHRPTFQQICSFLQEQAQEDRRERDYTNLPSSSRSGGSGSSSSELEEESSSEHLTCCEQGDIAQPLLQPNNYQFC
T1 sequence (P11802 whole entry): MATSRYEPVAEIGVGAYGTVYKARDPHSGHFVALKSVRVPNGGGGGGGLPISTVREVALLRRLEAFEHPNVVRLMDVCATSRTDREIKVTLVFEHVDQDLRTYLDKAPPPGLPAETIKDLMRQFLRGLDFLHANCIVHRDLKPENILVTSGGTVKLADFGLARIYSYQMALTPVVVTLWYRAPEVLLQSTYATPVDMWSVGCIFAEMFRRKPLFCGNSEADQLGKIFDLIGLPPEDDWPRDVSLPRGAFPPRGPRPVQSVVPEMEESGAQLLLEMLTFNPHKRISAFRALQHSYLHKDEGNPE
T1 sequence (P24385 whole entry partner): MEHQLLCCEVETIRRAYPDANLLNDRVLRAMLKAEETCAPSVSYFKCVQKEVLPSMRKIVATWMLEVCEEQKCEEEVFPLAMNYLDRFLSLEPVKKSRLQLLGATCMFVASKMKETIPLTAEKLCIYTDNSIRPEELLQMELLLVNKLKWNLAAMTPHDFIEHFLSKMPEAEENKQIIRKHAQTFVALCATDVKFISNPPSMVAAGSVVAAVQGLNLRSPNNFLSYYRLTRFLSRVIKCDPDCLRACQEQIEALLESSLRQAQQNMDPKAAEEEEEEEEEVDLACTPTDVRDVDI
T2 sequence (Q00534 whole entry): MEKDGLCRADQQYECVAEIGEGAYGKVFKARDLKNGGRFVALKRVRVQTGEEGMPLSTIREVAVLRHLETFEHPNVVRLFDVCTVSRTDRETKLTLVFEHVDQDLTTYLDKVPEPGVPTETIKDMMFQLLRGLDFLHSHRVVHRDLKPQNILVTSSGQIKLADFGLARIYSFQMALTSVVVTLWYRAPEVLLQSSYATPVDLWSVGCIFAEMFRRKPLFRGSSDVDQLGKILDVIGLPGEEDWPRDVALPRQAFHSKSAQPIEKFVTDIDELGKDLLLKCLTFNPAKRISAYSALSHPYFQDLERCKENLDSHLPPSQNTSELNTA
T2 sequence (P24385 whole entry partner): as the sequence (P24385 whole entry partner) above

For the compound `CN1CCN(c2ccc(Nc3ncc4cc(C#N)c(=O)n(Cc5ccccc5)c4n3)cc2)CC1` [Compound No. 32, 8-benzyl-2-((4-(4-methylpiperazin-1-yl)phenyl)amino)-7-oxo-7,8-dihydropyrido[2,3-d]pyrimidine-6-carbonitrile], the IC50 came out at 1 nM on CDK4; 7 nM on CDK6; 3.5 nM at FMS kinase; 251 nM at PI3Kδ kinase; 2010 nM in experiment [1].

In the case of `CN1CCN(C(=O)Cn2cc(Nc3ncc4cc(C#N)c(=O)n(C5CCCC5)c4n3)cn2)CC1` [Compound 58], the IC50 is more than 200 nM at CDK4, 4520 nM on FMS kinase and more than 30000 nM against PI3Kδ kinase.

For the compound `CN1CCc2cc(Nc3ncc4cc(C#N)c(=O)n(C5CCCC5)c4n3)ccc2C1` [Compound No. 38, 8-cyclopentyl-2-((2-methyl-1,2,3,4-tetrahydroisoquinolin-6-yl)amino)-7-oxo-7,8-dihydropyrido[2,3-d]pyrimidine-6-carbonitrile], the IC50 on CDK4 came to 1.5 nM; at CDK6, 1 nM; at FMS kinase, 5.5 nM; against PI3Kδ kinase, 384 nM; in experiment [1] it was 452 nM.

With `N#Cc1cc2cnc(Nc3ccc(N4CCNCC4)cc3)nc2n(C2CCc3ccccc32)c1=O` (centres unmarked) [Compound No. 42, 8-(2,3-dihydro-1H-inden-1-yl)-7-oxo-2-((4-(piperazin-1-yl)phenyl)amino)-7,8-dihydropyrido[2,3-d]pyrimidine-6-carbonitrile], the IC50 came to 57 nM at CDK4; 12 nM on CDK6; 4 nM at FMS kinase; 651 nM at PI3Kδ kinase; 713 nM in experiment [1].

Consider `N#Cc1cc2cnc(Nc3ccc(N4CCC(O)CC4)c(F)c3)nc2n(C2CCCC2)c1=O` [Compound No. 49, 8-cyclopentyl-2-((3-fluoro-4-(4-hydroxypiperidin-1-yl)phenyl)amino)-7-oxo-7,8-dihydropyrido[2,3-d]pyrimidine-6-carbonitrile], for which the IC50 is 9.1 nM at CDK4; 4 nM on CDK6; 1 nM at FMS kinase; 4.3 nM against PI3Kδ kinase; 4440 nM in experiment [1].

As for `N#Cc1cc2cnc(Nc3cccc(S(N)(=O)=O)c3)nc2n(C2CCCC2)c1=O` [Compound No. 3, 3-((6-cyano-8-cyclopentyl-7-oxo-7,8-dihydropyrido[2,3-d]pyrimidin-2-yl)amino)benzenesulfonamide], the IC50 at CDK4 stood at 12 nM; on CDK6, 14 nM; at FMS kinase, 35 nM; on PI3Kδ kinase, 130 nM.

Regarding `CC(C)N1CCc2cc(Nc3ncc4cc(C#N)c(=O)n(C5CCCC5)c4n3)ccc2C1` [Compound No. 45, 8-cyclopentyl-2-((2-isopropyl-1,2,3,4-tetrahydroisoquinolin-6-yl)amino)-7-oxo-7,8-dihydropyrido[2,3-d]pyrimidine-6-carbonitrile], the IC50 on CDK4 came to 4.5 nM; at CDK6, 19 nM; on FMS kinase, 2 nM; against PI3Kδ kinase it was 490 nM; in experiment [1], 428 nM.

As for `CN1CCN(CCCn2cc(Nc3ncc4cc(C#N)c(=O)n(C5CCCC5)c4n3)cn2)CC1` [Compound 56], the IC50 is more than 200 nM on CDK4, more than 5000 nM on FMS kinase and more than 30000 nM against PI3Kδ kinase.

Consider `CN(C)Cc1c[nH]c2cc(Nc3ncc4cc(C#N)c(=O)n(C5CCCC5)c4n3)ccc12` [Compound No. 21, 8-cyclopentyl-2-((3-((dimethylamino)methyl)-1H-indol-6-yl)amino)-7-oxo-7,8-dihydropyrido[2,3-d]pyrimidine-6-carbonitrile], for which the IC50 turned out to be 11 nM on CDK4; 2 nM on CDK6; 2.5 nM at FMS kinase; 1010 nM on PI3Kδ kinase; 238 nM in experiment [1].

`N#Cc1cc2cnc(Nc3ccc(N4CCNCC4=O)cc3)nc2n(C2CCCC2)c1=O` [Compound No. 12, 8-cyclopentyl-7-oxo-2-((4-(2-oxopiperazin-1-yl)phenyl)amino)-7,8-dihydropyrido[2,3-d]pyrimidine-6-carbonitrile]: the IC50 on FMS kinase amounted to 0.4 nM; at PI3Kδ kinase it was 1330 nM; in experiment [1] it was 2500 nM.

As to `CN(C)CC1Cc2ccc(Nc3ncc4cc(C#N)c(=O)n(C5CCCC5)c4n3)cc2C(=O)N1` (centres unmarked) [Compound No. 22, 8-cyclopentyl-2-((3-((dimethylamino)methyl)-1-oxo-1,2,3,4-tetrahydroisoquinolin-7-yl)amino)-7-oxo-7,8-dihydropyrido[2,3-d]pyrimidine-6-carbonitrile], the IC50 at CDK4 is more than 200 nM; at CDK6, 65 nM; at FMS kinase, less than 1 nM; against PI3Kδ kinase it was 43 nM; in experiment [1], 1020 nM.

Turning to `CN1CCc2ccc(Nc3ncc4cc(C#N)c(=O)n(C5CCCC5)c4n3)cc2C1` [Compound No. 34, 8-cyclopentyl-2-((2-methyl-1,2,3,4-tetrahydroisoquinolin-7-yl)amino)-7-oxo-7,8-dihydropyrido[2,3-d]pyrimidine-6-carbonitrile], the IC50 was 6.5 nM at CDK4; 9 nM on CDK6; 5.2 nM at FMS kinase; 1230 nM on PI3Kδ kinase; 315 nM in experiment [1].

On to `CN(C)C1CCN(c2ccc(Nc3ncc4cc(C#N)c(=O)n(C5CCCC5)c4n3)cc2F)CC1` [Compound No. 44, 8-cyclopentyl-2-((4-(4-(dimethylamino)piperidin-1-yl)-3-fluorophenyl)amino)-7-oxo-7,8-dihydropyrido[2,3-d]pyrimidine-6-carbonitrile], for which the IC50 at CDK4 came out at 2 nM; on CDK6, 1 nM; on FMS kinase, 2.5 nM; on PI3Kδ kinase, 95 nM; in experiment [1], 95 nM.

On to `C[C@H]1CC[C@H](n2c(=O)c(C#N)cc3cnc(Nc4cccc(C(N)=O)c4)nc32)CC1` [Compound No. 4, 3-((6-cyano-8-((1r,4r)-4-methylcyclohexyl)-7-oxo-7,8-dihydropyrido[2,3-d]pyrimidin-2-yl)amino)benzamide], for which the IC50 at FMS kinase was 1 nM; against PI3Kδ kinase, 2730 nM.

As for `N#Cc1cc2cnc(Nc3ccc4c(c3)NC(=O)CC4)nc2n(C2CCCC2)c1=O` [Compound No. 9, 8-cyclopentyl-7-oxo-2-((2-oxo-1,2,3,4-tetrahydroquinolin-7-yl)amino)-7,8-dihydropyrido[2,3-d]pyrimidine-6-carbonitrile], the IC50 on FMS kinase was less than 1 nM; against PI3Kδ kinase, 955 nM.

Consider `N#Cc1cc2cnc(Nc3cccc(C(N)=O)c3)nc2n(C2CCCC2)c1=O` [Compound No. 5, 3-((6-cyano-8-cyclopentyl-7-oxo-7,8-dihydropyrido[2,3-d]pyrimidin-2-yl)amino)benzamide], for which the IC50 on CDK4 turned out to be 212 nM; at CDK6 it was 48 nM; on FMS kinase it was 1 nM; on PI3Kδ kinase, 444 nM.

Turning to `C[C@H]1CC[C@H](n2c(=O)c(C#N)cc3cnc(Nc4cccc(S(N)(=O)=O)c4)nc32)CC1` [Compound No. 2, 3-((6-cyano-8-((1r,4r)-4-methylcyclohexyl)-7-oxo-7,8-dihydropyrido[2,3-d]pyrimidin-2-yl)amino)benzenesulfonamide], the IC50 at FMS kinase is 180 nM; against PI3Kδ kinase, 129 nM.
